Data as given in US20100035926A1, “PYRAZOLE DERIVATIVES AS NON-STEROIDAL GLUCOCORTICOID RECEPTOR LIGANDS” (priority 2006, published 2010).
Where two headings read alike, the source gives them in different places.

How the values were obtained:
GR [1] = molecular target: T1, GR (Homo sapiens, UniProt P04150); assay: GR Agonist Assay - MMTV Assay (A549 MMTV cells, renilla luciferase reporter); assay type: cell-based; details: 6 h, agonists, read-out: average maximum asymptote in the MMTV agonist assay
T1 construct: endogenous in cells; host or cells: A549 (human lung carcinoma, ECACC No. 86012804), stably transfected with reporter plasmids only
T1 sequence (P04150 1-777): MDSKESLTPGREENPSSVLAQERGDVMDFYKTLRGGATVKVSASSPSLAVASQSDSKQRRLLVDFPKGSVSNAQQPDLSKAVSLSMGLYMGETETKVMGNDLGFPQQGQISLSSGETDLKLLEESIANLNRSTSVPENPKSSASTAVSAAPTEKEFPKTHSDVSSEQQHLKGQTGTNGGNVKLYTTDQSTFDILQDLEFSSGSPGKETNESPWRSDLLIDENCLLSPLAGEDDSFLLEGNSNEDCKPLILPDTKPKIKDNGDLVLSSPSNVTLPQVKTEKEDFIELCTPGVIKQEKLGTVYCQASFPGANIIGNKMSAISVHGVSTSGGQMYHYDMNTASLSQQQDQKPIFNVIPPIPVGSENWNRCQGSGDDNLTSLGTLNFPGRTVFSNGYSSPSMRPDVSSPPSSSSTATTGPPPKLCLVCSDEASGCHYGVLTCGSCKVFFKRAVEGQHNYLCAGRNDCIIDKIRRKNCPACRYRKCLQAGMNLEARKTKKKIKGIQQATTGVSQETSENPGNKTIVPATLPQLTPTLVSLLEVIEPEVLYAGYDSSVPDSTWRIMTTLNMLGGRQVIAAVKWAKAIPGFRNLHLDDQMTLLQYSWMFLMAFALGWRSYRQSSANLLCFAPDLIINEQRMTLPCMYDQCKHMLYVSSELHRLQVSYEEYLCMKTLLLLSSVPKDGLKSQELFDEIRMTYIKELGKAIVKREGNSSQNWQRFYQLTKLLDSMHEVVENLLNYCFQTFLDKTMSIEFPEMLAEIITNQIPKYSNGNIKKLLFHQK
How it was run: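 Stably transfected A549 MMTV cells carry a GR-driven luciferase reporter. Cells at 0.1×10^6/ml in DMEM with 10% FCS and 25 mM HEPES were added to wells containing compound. After detection reagent, plates were held about 15 mins at room temperature and luminescence was read.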

glucocorticoid receptor = molecular target: T2, glucocorticoid receptor (Homo sapiens, UniProt P04150); assay: Glucocorticoid Receptor Binding Assay (fluorescence polarisation, displacement of Alexa 555 labelled dexamethasone derivative); details: at least once in this assay; read-out: glucocorticoid binding pIC50 (converted)
T2 construct: a partially purified full length glucocorticoid receptor
T2 sequence (P04150 1-777): T1 sequence (P04150 1-777)
How it was run: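 Partially purified full-length GR incubated with test compound and fluorescent dexamethasone plus GR-stabilising buffer components, 2 hr at room temperature in the dark. Binding scored as displacement of tracer, read as decrease in fluorescence polarisation.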

GR [2] = molecular target: T1, GR; assay: GR Functional Assay - NFκB Assay (A549 SPAP cells, TNFα stimulated); assay type: cell-based; details: for Emax: agonists, read-out: average maximum asymptote in the NFkB assay
How it was run: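 Stably transfected A549 SPAP cells at 0.16×10^6/ml in DMEM with 10% FCS were added to compound and stimulated with TNFα to drive NFκB-dependent SPAP expression. After 1 hr equilibration at room temperature, SPAP was read colorimetrically with pNPP in diethanolamine buffer, pH 9.8.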

Progesterone Receptor = molecular target: T3, Progesterone Receptor (Homo sapiens, UniProt P06401); assay: Assay for Progesterone Receptor Agonist Activity (CV-1 cells, PRb-BacMam, MMTV-BacMam); assay type: cell-based; details: at least once in this assay, read-out: progesterone receptor agonist pEC50 (converted)
T3 construct: expressed in transfected cells; host or cells: CV-1 cells transduced with PRb-BacMam and MMTV-BacMam
T3 sequence (P06401 1-933): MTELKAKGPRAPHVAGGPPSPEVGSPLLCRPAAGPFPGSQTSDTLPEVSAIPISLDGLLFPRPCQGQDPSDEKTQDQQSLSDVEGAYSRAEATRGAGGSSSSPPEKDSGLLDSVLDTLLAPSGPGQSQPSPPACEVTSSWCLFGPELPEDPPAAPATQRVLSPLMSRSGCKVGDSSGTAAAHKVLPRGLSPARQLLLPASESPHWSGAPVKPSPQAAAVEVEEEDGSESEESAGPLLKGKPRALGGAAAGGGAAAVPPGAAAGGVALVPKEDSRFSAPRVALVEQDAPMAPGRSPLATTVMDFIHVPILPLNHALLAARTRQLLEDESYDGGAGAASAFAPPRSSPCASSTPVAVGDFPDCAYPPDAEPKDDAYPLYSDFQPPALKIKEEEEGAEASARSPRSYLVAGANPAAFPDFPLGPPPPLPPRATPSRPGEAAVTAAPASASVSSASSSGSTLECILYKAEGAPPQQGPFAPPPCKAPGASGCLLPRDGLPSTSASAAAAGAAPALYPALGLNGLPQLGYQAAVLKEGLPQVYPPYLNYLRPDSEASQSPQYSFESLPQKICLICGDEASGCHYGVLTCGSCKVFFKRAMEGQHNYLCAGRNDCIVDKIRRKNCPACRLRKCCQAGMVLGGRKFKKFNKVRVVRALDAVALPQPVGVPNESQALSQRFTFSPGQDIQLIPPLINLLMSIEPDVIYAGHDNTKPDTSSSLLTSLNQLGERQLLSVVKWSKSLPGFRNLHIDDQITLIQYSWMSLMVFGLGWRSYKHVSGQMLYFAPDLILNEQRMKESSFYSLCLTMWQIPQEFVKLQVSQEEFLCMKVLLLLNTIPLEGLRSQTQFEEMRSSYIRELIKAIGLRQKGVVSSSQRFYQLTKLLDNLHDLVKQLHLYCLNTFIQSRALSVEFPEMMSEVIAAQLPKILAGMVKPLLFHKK
Description: A T225 flask of CV-1 cells at a density of 80% confluency was washed with PBS, detached from the flask using 0.25% trypsin and counted using a Sysmex KX-21N. Cells were diluted in DMEM containing 10% Hyclone, 2 mM […] and 1% Pen/Strep at 140 cells/μl and transduced with 10% PRb-BacMam and 10% MMTV-BacMam. […] of suspension cells were dispensed to each well of white Nunc 384-well plates, containing compounds at the required concentration. After 24 hr 10 μl of Steadylite were added to each well of the plates. Plates were incubated in the dark for 10 min before reading them on a Viewlux reader. Dose response curves were constructed from which pEC50 values were estimated.

[3] = at least once in the NFkB assay, A549 SPAP cells, read-out: pIC50 in the NFkB assay (converted)
[4] = at least once, examples listed as agonists in NFkB and MMTV assays, read-out: potency pIC50 in the NFKB assay (converted)

| Compound | Emax (GR [1]) | IC50 (glucocorticoid receptor) | Emax (GR [2]; A549 SPAP cells) | IC50 (GR [2]; [3]) | IC50 (GR [2]; [4]) | EC50 (Progesterone Receptor) |
| --- | --- | --- | --- | --- | --- | --- |
| CCN(CC(O)(CNC(=O)c1cnn(-c2ccc(F)cc2)c1N)C(F)(F)F)C(=O)c1ccccc1C(F)(F)F (racemic) [Example 9 (racemic), 5-amino-N-{2-[(ethyl{[2-(trifluoromethyl)phenyl]carbonyl}amino)methyl]-3,3,3-trifluoro-2-hydroxypropyl}-1-(4-fluorophenyl)-1H-pyrazole-4-carboxamide] | ≥ 40% | < 1000 nM | ≥ 40% | < 1000 nM | < 316 nM | > 1000 nM |
| CCN(CC(O)(CNC(=O)c1cnn(-c2ccc(F)cc2)c1N)C(F)(F)F)C(=O)c1ccccc1 (racemic) [Example 14 (racemic), 5-amino-N-(2-{[ethyl(phenylcar-bonyl)amino]methyl}-3,3,3-trifluoro-2-hydroxypropyl)-1-(4-fluorophenyl)-1H-pyrazole-4-carboxamide] | ≥ 40% | < 1000 nM | ≥ 40% | < 1000 nM | < 316 nM | > 1000 nM |
| Nc1c(C(=O)NCC(O)(CN(CCF)C(=O)c2ccccc2Cl)C(F)(F)F)cnn1-c1ccc(F)cc1 (racemic) [Example 15 (racemic), 5-amino-N-(2-{[[(2-chlorophenyl)car-bonyl](2-fluoroethyl)amino]methyl}-3,3,3-trifluoro-2-hydroxypropyl)-1-(4-fluorophenyl)-1H-pyrazole-4-carboxamide] | ≥ 40% | < 1000 nM | ≥ 40% | < 1000 nM | < 316 nM | > 1000 nM |
| CCN(CC(O)(CNC(=O)c1cnn(-c2ccccc2)c1N)C(F)(F)F)C(=O)c1ccccc1F (racemic) [Example 45 (racemic), 5-amino-N-[2-({ethyl[(2-fluorophenyl)car-bonyl]amino}methyl)-3,3,3-trifluoro-2-hydroxypropyl]-1-phenyl-1H-pyrazole-4-carboxamide] | ≥ 40% | < 1000 nM | ≥ 40% | < 1000 nM | < 316 nM | > 1000 nM |
| CCN(CC(O)(CNC(=O)c1cnn(-c2ccccc2)c1N)C(F)(F)F)C(=O)c1ccccc1Cl (racemic) [Example 46 (racemic), 5-amino-N-(2-{[[(2-chlorophenyl)car-bonyl](ethyl)amino]methyl}-3,3,3-trifluoro-2-hydroxypropyl)-1-phenyl-1H-pyrazole-4-carboxamide] | ≥ 40% | < 1000 nM | ≥ 40% | < 1000 nM | < 316 nM | > 1000 nM |
| Nc1c(C(=O)NCC(O)(CN(CCF)C(=O)c2ccccc2F)C(F)(F)F)cnn1-c1ccc(F)cc1 (single isomer, unassigned) [Example 2 Enantiomer 1, 5-Amino-1-(4-fluorophenyl)-N-[3,3,3-trifluoro-2-([(2-fluoroethyl)[(2-fluorophenyl)carbonyl]amino]methyl)-2-hydroxypropyl]-1H-pyrazole-4-carboxamide] | ≥ 40% | < 1000 nM | ≥ 40% | < 1000 nM | < 316 nM | > 1000 nM |
| CCN(CC(O)(CNC(=O)c1cnn(-c2ccc(F)cc2)c1N)C(F)(F)F)C(=O)c1cccc(F)c1F (single isomer, unassigned) [Example 5 Enantiomer 1, 5-Amino-N-(2-{[[(2,3-difluorophenyl)carbonyl](ethyl)amino]methyl}-3,3,3-trifluoro-2-hydroxypropyl)-1-(4-fluorophenyl)-1H-pyrazole-4-carboxamide] | ≥ 40% | < 1000 nM | ≥ 40% | < 1000 nM | < 316 nM | > 1000 nM |
| CN(CC(O)(CNC(=O)c1cnn(-c2ccc(F)cc2)c1N)C(F)(F)F)C(=O)c1ccccc1Cl (single isomer, unassigned) [Example 7 Enantiomer 1, 5-amino-N-(2-{[[(2-chlorophenyl)car-bonyl](methyl)amino]methyl}-3,3,3-trifluoro-2-hydroxypropyl)-1-(4-fluorophenyl)-1H-pyrazole-4-carboxamide] | ≥ 40% | < 1000 nM | ≥ 40% | < 1000 nM | < 316 nM | > 1000 nM |
| CCN(CC(O)(CNC(=O)c1cnn(-c2ccc(F)cc2)c1N)C(F)(F)F)C(=O)c1cccc2cccnc12 (single isomer, unassigned) [Example 8 Enantiomer 1, N-{2-[({[5-amino-1-(4-fluorophenyl)-1H-pyrazol-4-yl]carbonyl}amino)methyl]-3,3,3-trifluoro-2-hydroxypropyl}-N-ethyl-8-quinolinecarboxamide] | ≥ 40% | < 1000 nM | ≥ 40% | < 1000 nM | < 316 nM | > 1000 nM |
| CCN(CC(O)(CNC(=O)c1cnn(-c2ccc(F)cc2)c1N)C(F)(F)F)C(=O)c1ccccc1C(F)(F)F (single isomer, unassigned) [Example 9 Enantiomer 1, 5-amino-N-{2-[(ethyl{[2-(trifluoromethyl)phenyl]carbonyl}amino)methyl]-3,3,3-trifluoro-2-hydroxypropyl}-1-(4-fluorophenyl)-1H-pyrazole-4-carboxamide] | ≥ 40% | < 1000 nM | ≥ 40% | < 1000 nM | < 316 nM | > 1000 nM |
| CCN(CC(O)(CNC(=O)c1cnn(-c2ccccc2)c1N)C(F)(F)F)C(=O)c1ccccc1F (single isomer, unassigned) [Example 45 Enantiomer 1, 5-amino-N-[2-({ethyl[(2-fluorophenyl)car-bonyl]amino}methyl)-3,3,3-trifluoro-2-hydroxypropyl]-1-phenyl-1H-pyrazole-4-carboxamide] | ≥ 40% | < 1000 nM | ≥ 40% | < 1000 nM | < 316 nM | > 1000 nM |
